Our source for the TGI and GI50 values is PubChem BioAssay (NCI).

Assay in all cases: DTP human tumour cell line panel, 48 h
Experiment [1] deals with MOLT-4 leukemia.
For experiment [2], the system named is HCC-2998 colon.
Experiment [3] has as its system TK-10 renal.
Experiment [4] deals with MALME-3M melanoma.
Experiment [5] relates to NCI-H23 lung.
Experiment [6] concerns OVCAR-8 ovarian.
Experiment [7] has as its system 786-0 renal.
Experiment [8] relates to NCI-H522 lung.
For experiment [9], the system named is CAKI-1 renal.
Experiment [10] has as its system HOP-92 NSCLC.

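Method: 48-hour compound exposure of cells in 96-well plates, five concentrations, linear interpolation of endpoints. Abbreviation: GI50, concentration required for 50% inhibition of growth. TGI denotes the concentration required for complete inhibition of growth.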 Where a SMILES comes first, the peptide text is derived from it. [ ]: non-standard residue; d: D form. Ac5c = NC1(C(=O)O)CCCC1 Some results are limits rather than exact numbers.

In general, TGI refers to the concentration at which net growth stops. High values mean lower sensitivity of the cells, low ones greater sensitivity of the cells. For `Cc1c(NC(=O)C(C)(C)Br)c(=O)oc2c(C)c3occc(=O)c3cc12`, the TGI in experiment [1], in experiment [2], in experiment [3], in [4], in experiment [5] and in [6] was more than 100 µM in each case. Besides, the TGI in experiment [7] was more than 100 µM.
With `CCC1(CC)C(=O)OC(=O)C1(CC)CC`, the TGI in experiment [8], in experiment [1], in experiment [2], in experiment [3], in experiment [9] and in experiment [5] was more than 100 µM throughout. The TGI in experiment [6] and in experiment [7] was more than 100 µM in each case.
On to `c1ccc2c(c1)CCC/C2=N\OCC1CO1` (configuration not stated), for which the concentration for total growth inhibition (TGI) in experiment [1], in [2], in [3], in experiment [4], in experiment [10] and in experiment [9] was more than 100 µM throughout. The concentration for total growth inhibition (TGI) in experiment [5], in [6] and in experiment [7] was more than 100 µM throughout.
For `COc1cc(/C=C(\C#N)C(=O)c2ccccc2)ccc1OCc1ccccc1`, the TGI in experiment [8], in experiment [1], in experiment [2], in experiment [3], in [9] and in experiment [5] was more than 100 µM each time. For the same molecule, the TGI in experiment [6] and in [7] was more than 100 µM in each case.
As for `O=C1OC(CC(=O)c2ccc(Cl)c(Cl)c2)C(Cl)=C1Cl` (configuration not stated), the TGI in experiment [8] is 72.6 µM; in experiment [1], more than 100 µM; in experiment [2], more than 100 µM; in experiment [3] it was more than 100 µM; in [4] it was more than 100 µM; in [9], more than 100 µM. The TGI in [5], in experiment [6] and in experiment [7] was more than 100 µM each time.
What is called GI50 is the concentration giving 50% growth inhibition. Turning to `CC(O)c1cccc(NCc2c3ccccc3c(=O)n3c2oc2ccccc23)c1` (configuration not stated), the GI50 in [8] is 5.55 µM; in [1] it was 5.03 µM; in [2], 11.3 µM; in [3], 5.7 µM; in [10], 5.4 µM; in experiment [9], 7.29 µM. Also, the GI50 in experiment [5] was 9.41 µM; in experiment [6] it was 8.04 µM; in experiment [7] it was 4.18 µM. Further, the TGI in experiment [8] was 45.1 µM; in experiment [1], more than 100 µM; in [2], 57.2 µM; in experiment [3], 28 µM; in experiment [10], 44.3 µM; in [9], more than 100 µM. Moreover, the TGI in [5] is 26.9 µM; in experiment [6], 36.2 µM; in experiment [7], 19.2 µM.
For the molecule `CCCCOC(=O)NC(=O)c1cn(CCCOC(=O)CCCCCCCCC(=O)OCCCn2cc(C(=O)NC(=O)OCCCC)c(=O)[nH]c2=O)c(=O)[nH]c1=O`, the TGI in [1], in experiment [2], in [3], in experiment [4], in [10] and in experiment [5] was more than 100 µM throughout. The TGI in [6] and in [7] was more than 100 µM in each case.
For `COc1cc(OC)c(/C=C/S(=O)(=O)Cc2cnc(OC)c(N)c2)c(OC)c1`, the GI50 in experiment [8] was less than 0.01 µM; in [1] it was less than 0.0218 µM; in experiment [2], less than 0.0333 µM; in experiment [3], more than 100 µM; in [4], more than 100 µM; in experiment [9] it was less than 0.0177 µM. Also, the GI50 in [5] was less than 0.0262 µM; in experiment [6], less than 0.024 µM; in experiment [7] it was less than 0.031 µM. Besides, the TGI in experiment [1], in experiment [2], in [3], in [4], in experiment [9] and in experiment [5] was more than 100 µM throughout. Besides, the TGI in [6] and in experiment [7] was more than 100 µM in each case.
In the case of `NNC(=O)/C(=C/c1ccc(Cl)c(Cl)c1)NC(=O)c1ccccc1`, the TGI in experiment [1], in experiment [2], in experiment [3], in experiment [4], in [10] and in [5] was more than 100 µM throughout. Besides, the TGI in experiment [6] and in experiment [7] was more than 100 µM in each case.
Turning to `NC1(C(=O)NC2(C(=O)O)CCCC2)CCCC1` (H-[Ac5c]-[Ac5c]-OH), the TGI in experiment [8], in experiment [1], in experiment [3], in experiment [4], in experiment [10] and in experiment [9] was more than 100 µM each time. Further, the TGI in experiment [5], in [6] and in [7] was more than 100 µM each time.
As to `CCOC(=O)c1cc(C#N)c(=O)n(/N=C(\C)c2ccncc2)c1O`, the GI50 in experiment [1], in experiment [2], in experiment [3], in experiment [4], in experiment [10] and in experiment [9] was more than 100 µM throughout. Also, the GI50 in experiment [5], in experiment [6] and in experiment [7] was more than 100 µM throughout. The TGI in experiment [1], in [2], in experiment [3], in [4], in experiment [10] and in [9] was more than 100 µM in each case. Also, the TGI in [5], in experiment [6] and in experiment [7] was more than 100 µM in each case.
`O=S(=O)(N/N=C/c1ccc(/C=N/NS(=O)(=O)c2ccccc2)cc1)c1ccccc1`: the total growth inhibition concentration (TGI) in experiment [1] was 60.9 µM; in experiment [2] it was more than 100 µM; in experiment [3] it was more than 100 µM; in experiment [4], more than 100 µM; in experiment [10], 64.8 µM; in [5], 66.8 µM. The TGI in experiment [6] and in experiment [7] was more than 100 µM each time.
